# Patent US20060094676A1, “Compositions and methods for treating cancer using compositions comprising an inhibitor of endothelin receptor activity” (priority 2004, published 2006)
# Key:
# caspase 3 = experiment: Western blot for caspase 3 activation; format: cell-based; details: BQ788-treated melanoma cells; data not shown
# Description: Down-regulation of BCL2-A1 results in caspase 9 activation but not caspase 3 or 8 cleavage (Duriez, et al., A1 functions at the mitochondria to delay endothelial apoptosis in response to tumor necrosis factor, J. Biol. Chem., 275:18099-18107 (2000); Pagliari, et al., Macrophages require constitutive NF-kappaB activation to maintain A1 expression and mitochondrial homeostasis, Mol. Cell Biol., 20:8855-8865 (2000)). […] Whether caspase 6 activation occurs via reduction in BCL-2A1 expression or by alternative pathways remains to be determined.
# GRAVIN = experiment: Real-time RT-PCR of Gravin transcripts; format: cell-based, human; details: melanoma cell lines treated with BQ788
# Procedure: Equal amounts of RNA from cells that were treated with BQ788 for 3 days were subjected to real-time RT-PCR analysis for the detection VEGF (A), HIF-1α (B) and Gravin (C) transcripts. Differences in expression levels are shown as x fold change and are statistically significant (p<0.05) unless a column in marked as non significant (N.S.). Sections of two representative tumors derived from a human melanoma cell line grown in nude mice and injected either with vehicle (D) or BQ788 (E) were stained with anti CD-31 to highlight blood vessels (brown staining, Lahav et al, 1999).
# RNA was prepared from the different cell lines in different culture conditions using SV total RNA isolation kit (Promega) according to the manufacturer's protocol. For each sample RNA concentration was determined using the total RNA nano procedure of an Agilent bioanalyzer. A stock of SK-MEL-28 RNA aliquots was prepared containing 10, 20, 50, 100, 200, 500 and 1000 ng/12 μl for use as a standard curve and kept in −80° C. For the experimental unknown samples, a stock of 100 ng/12 μl RNA aliquots from each cell line and condition was prepared and stored at −80° C. […] A standard curve of Ct versus RNA quantity was established and accordingly the Ct in the unknown samples was correlated to quantity of transcript. […]
# Cut-met line = experiment: Apoptosis detection ELISA (histone-associated DNA fragments); format: cell-based, human; details: BQ788 5 days
# Procedure: (§1) Cells were plated in 24 wells plate in 500 μl medium and cultured for 5 days in the presence of BQ788 or solvent. A cell death detection ELISA PLUS kit (Roche) designed to reveal histone-180 bp DNA fragment complexes of nucleosomes was used to measure apoptosis. Briefly, cells floating in the supernatants and those attached to the dish were incubated in lysis buffer for 30 min. in room temperature (RT). After spinning for 10 min at 200 g, the DNA content of each sample was determined. 20 μl containing equal amounts of DNA were added to each well (3 wells per condition) coated with anti-histone antibody and incubated with additional 80 μl anti-DNA peroxidase immunogen under gentle shaking conditions for 2 h at RT. After washing and revelation with peroxidase substrate the samples OD were measured at 405 nm against substrate containing wells as blank.
# (§2) Because BCL-2A1 and PARP are known regulators of apoptosis (Smulson, et al., Roles of poly(ADP-ribosyl)ation and PARP in apoptosis, DNA repair, genomic stability and functions of p53 and E2F-1, Adv. Enzyme Regul., 40:183-215 (2000); Vander Heiden, et al., Bcl-2 proteins: regulators of apoptosis or of mitochondrial homeostasis?, Nat. Cell Biol., 1:E209-E216, (1999)), we used an apoptosis detection ELISA that detects histone-associated DNA fragments to measure apoptotic cell death in the different cell lines treated with BQ788.
# LN-met = experiment: as above; format: cell-based, human; details: BQ788 5 days
# Procedure: as §1, §2
# primary melanoma cells = experiment: as above; format: cell-based, human; details: BQ788 5 days
# Procedure: as §1, §2
# SK-MEL-28 = experiment: as above; format: cell-based, human; details: BQ788 5 days
# Procedure: as §1, §2
# [1] = hypertension patients and healthy volunteers; cited from earlier work
smiles,measurement,setting,value
"CCCC[C@@H](NC(=O)[C@@H](Cc1cn(C(=O)OC)c2ccccc12)NC(=O)[C@H](CC(C)(C)C)NC(=O)N1[C@H](C)CCC[C@@H]1C)C(=O)O [BQ788, N-cis-2,6-dimethylpiperidinocarbonyl-L-γ-methylleucyl-D-1-methoxycarbonyltrptophanyl-D-norleucine]",caspase 3 activation,caspase 3,did not reveal caspase 3 activation
same,GRAVIN expression,GRAVIN,down-regulated
same,apoptosis level,Cut-met line,slight increase
same,apoptosis level,LN-met,intermediate level
same,apoptosis level,primary melanoma cells,did not display apoptosis
same,apoptosis level,SK-MEL-28,highest induction
same,toxicity in clinical trials,[1],not found to be toxic
